From US11931404B2, “Use of ultrarapid acting insulin” (MannKind Corporation, priority 2014, dated 2024)

Test system: subjects with type 2 diabetes
Assay: Meal challenge test, Original Protocol (OP): blood glucose, endogenous glucose production, glucose disappearance
Assay type: in vivo, human
Conditions: 45 U insulin-FDKP, 12 U sc lispro, 4 mg EXUBERA, FIG. 6
Procedure: The insulin-FDKP formulation is administered to the subjects by oral inhalation using a MEDTONE® dry powder inhaler (MannKind Corp.). Methods and results below are described in terms of the Original Protocol (OP), which includes the meal challenge in 18 subjects with three treatments (EXUBERA®, lispro and TI) and Amendment 1 (A1), which includes 12 subjects treated with only TI and lispro. […] The subjects were screened and evaluated before, during and after the experiments and their data analyzed as described below. Subjects were selected based on several key inclusion criteria, including, male and female, having ≥18 and ≤70 years of age with clinical diagnosis of type 2 diabetes mellitus for 12 months. […] Blood glucose concentrations were measured at regular intervals from arterialized venous blood samples. […] EGP was determined by measurement of 6,6-^2H2 glucose applying the modified calculations for the non-steady state ([…], and D. T. Stein. Calculating glucose fluxes during meal tolerance test: a new computational approach. Am.J.Physiol Endocrinol.Metab 293 (2):[…]-[…], 2007). C-peptide concentrations were measured pre- and post-dose to assess endogenous insulin secretion. In addition, glucagon and free fatty acid concentrations were also determined.

insulin lispro
time at which glucose disappearance rate peaked after dosing: about 120 minutes
